Test results taken from paper PMC12257413, “Discovery of a Novel sp^3‑Rich M1 Positive Allosteric Modulators (PAMs) Chemotype via Scaffold Hopping” (ACS Medicinal Chemistry Letters, 2025).
Positions count from the first letter of the chain named.

How the values were obtained:
[1] = biological target: T1, human muscarinic receptor subtype 1 (M1) (Homo sapiens, UniProt P11229); assay: Calcium mobilization assay in hM1-CHO cells, PAM activity with EC20 acetylcholine; format: cell-based; conditions: for EC50: read-out: hM1 pEC50 ± SEM (converted)
T1 sequence (P11229 1-460): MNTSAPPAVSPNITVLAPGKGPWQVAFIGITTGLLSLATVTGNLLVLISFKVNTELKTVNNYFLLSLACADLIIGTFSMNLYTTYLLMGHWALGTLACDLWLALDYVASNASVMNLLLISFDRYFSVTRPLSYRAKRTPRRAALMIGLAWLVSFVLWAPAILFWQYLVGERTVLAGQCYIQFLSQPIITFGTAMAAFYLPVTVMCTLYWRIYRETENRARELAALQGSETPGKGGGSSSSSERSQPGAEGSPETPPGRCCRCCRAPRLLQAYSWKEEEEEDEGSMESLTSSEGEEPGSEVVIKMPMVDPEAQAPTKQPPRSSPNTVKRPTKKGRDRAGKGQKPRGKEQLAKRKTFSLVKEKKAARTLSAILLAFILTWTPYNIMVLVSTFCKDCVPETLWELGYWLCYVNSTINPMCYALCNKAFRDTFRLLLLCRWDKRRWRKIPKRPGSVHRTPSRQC
Protocol: (§1) page 2: Procedures for Biological Experiments Calcium mobilization assays: To measure the functional activity of positive allosteric modulator (PAM) compounds in a cellular assay, human or rat muscarinic receptor subtype 1 (M1) was stably expressed in the Chinese hamster ovary (CHO) cells to evoke an increase in intracellular calcium to an EC20 concentration of acetylcholine (ACh) agonist. The stable M1-CHO cells were cultured in F12 medium containing 10% fetal bovine serum, 20 mM HEPES, 100 units/mL antibiotics/antimycotic, 0.5 mg/ml G418. All reagents used were from Life Technologies (Carlsbad, CA) unless otherwise noted. Briefly, the day before the assay, stable M1-CHO cells (15,000 cells/20 μL/well) were plated in black-walled, clear-bottomed, 384 well plates (Greiner Bio-One, Monroe, NC) in the culture medium without G418, and then incubated overnight at 37 °C in the presence of 5% CO2. The next day, calcium assay buffer (Hank’s balanced salt solution (HBSS), 20 mM HEPES, 2.5 mM Probenecid, 4.16 mM sodium bicarbonate (Sigma-Aldrich, St. Louis, MO) was prepared to dilute […] calcium indicator dye. […] curves in DMSO using the Bravo Liquid Handler (Agilent, Santa Clara, CA), transferred to a 384 well daughter plates using an Echo acoustic liquid handler (Beckman Coulter, Indianapolis, Indiana), and diluted in assay Buffer to a 2X final concentration. The agonist plates were prepared using acetylcholine (ACh, Sigma-Aldrich, St. Louis, MO) concentrations for the EC20 and ECMAX responses by diluting in assay buffer to a 5X final concentration. The 2X dye solution (2.3 µM) was prepared by mixing a 2.3 mM Fluo-4-AM stock in DMSO with 10% (w/v) pluronic acid F- 127 in a 1:1 ratio in assay buffer. Using a microplate washer (BioTek, Winooski, VT), cells were washed with assay buffer for 3 times to remove medium. After the final wash, 20 μL of assay buffer remained in the cell plates. Immediately, 20 μL of the 2X dye solution (final 1.15 µM) was added to each well of the cell plate using a Multidrop Combi dispenser (Thermo Fisher, Waltham, MA). After cells were incubated with the dye solutions for 45 min at 37 °C in the presence of 5% CO2, the dye solutions were removed and replaced with assay buffer using a microplate washer, leaving 20 μL of assay buffer in the cell plate. The compound, agonist, and cell plates were placed inside the Functional Drug Screening System uCell (FDSS uCell, Hamamatsu, Japan) to measure the calcium flux. The triple add protocol was used to measure Ca kinetics; Compound, ACh for EC20, and ACh for ECMAX adds in an order. Briefly, after establishment of a fluorescence baseline S2 page 3: for 2 seconds (excitation, 480 nm; emission, 530 nm), first add occurred by adding 20 µL of test compound to the cells, and the response was measured for 140 seconds. This is followed by second add; 10 µL (5X) of an EC20 concentration of ACh agonist was added to the cells, and the response of the cells was measured for 125 seconds. Immediately, the third add occurred by adding 12 ul assay buffer or 5X of an EC max concentration of ACh and the response of the cells was measured for 90 seconds. Assay buffer was added to the wells that incubated with compounds followed by EC20 concentration of ACh. Agonists containing ECmax concentration of ACh were added to the wells that incubated with DMSO and assay buffer from the 1st and 2nd adds to measure maximum Ca responses (ECmax). Calcium fluorescence was recorded as fold over basal fluorescence and raw data were normalized to the maximal response to ACh agonist. […]

[2] = biological target: T2, rat muscarinic receptor subtype 1 (M1) (Rattus norvegicus, UniProt P08482); assay: Calcium mobilization assay in rM1-CHO cells, PAM activity with EC20 acetylcholine; format: cell-based; conditions: for EC50: read-out: rM1 pEC50 ± SEM (converted)
T2 construct: expressed in transfected cells
T2 sequence (P08482 1-460): T1 sequence (P11229 1-460) with A5V, T254S, P309S, R320K, A337G, I413V
Protocol: as §1

hM1 %ACh Max ± SEM [1] [%ACh Max] | EC50 [1] [nM] | rM1 %ACh Max ± SEM [2] [%ACh Max] | EC50 [2] [nM] | hM1 pEC50 ± SEM [1] | rM1 pEC50 ± SEM [2] | Structure (SMILES)
73 ± 3.1 | 4900 | 80 ± 7.1 | 1480 |  |  | Cn1cc(-c2ccc(Cc3cc(C(=O)N[C@H]4CCOC[C@@H]4O)nn3C3CCCCC3)cc2)cn1 [17h]
74 ± 0.6 | 2000 | 84 ± 4.6 | 1200 |  |  | Cn1cc(-c2ccc(Cc3cc(C(=O)N[C@H]4CCOC[C@@H]4O)nn3-c3ccccc3)cc2)cn1 [17b]
78 ± 8.8 | 2950 | 76 ± 4.2 | 1910 |  |  | Cn1cc(-c2ccc(Cc3cc(C(=O)NC4CC5(COC5)C4)nn3C3CCCC3)cc2)cn1 [17p]
76 ± 10 | 2140 | 73 ± 5.3 | 1580 |  |  | Cn1cc(-c2ccc(Cc3cc(C(=O)N[C@H]4CCC[C@@H]4O)nn3C3CCCC3)cc2)cn1 [17m]
67 ± 2.5 | 6610 | 72 ± 3.8 | 4170 |  |  | Cn1cc(-c2ccc(Cc3cc(C(=O)N[C@@H]4CCOC[C@H]4F)nn3C3CCCC3)cc2)cn1 [17n]
79 ± 4.4 | 661 | 81 ± 3.8 | 724 |  |  | Cn1cc(-c2ccc(Cc3cc(C(=O)N[C@H]4CCCCC[C@@H]4O)nn3C3CCCC3)cc2)cn1 [17l]
48 ± 7.4 | > 10000 | 51 ± 3.9 | > 10000 |  |  | Cn1cc(-c2ccc(Cc3cc(C(=O)N[C@H]4CC[C@@H]4O)nn3-c3ccccc3)cc2)cn1 [17d]
70 ± 1.5 | 3020 | 80 ± 3.8 | 2510 |  |  | Cn1cc(-c2ccc(Cc3cc(C(=O)N[C@H]4CCCC[C@@H]4O)nn3-c3ccccc3)cc2)cn1 [17a]
58 ± 3.0 | > 10000 | 69 ± 4.3 | > 10000 |  |  | Cn1cc(-c2ccc(Cc3cc(C(=O)N[C@H]4CCC[C@@H]4O)nn3-c3ccccc3)cc2)cn1 [17c]
 |  |  |  | Inactive (n = 3) Inactive (n = 3) | Inactive (n = 3) Inactive (n = 3) | CC(C)n1nc(C(=O)N[C@H]2CCOC[C@@H]2O)cc1Cc1ccc(-c2cnn(C)c2)cc1 [17i]
71 ± 4.1 | 1200 | 75 ± 7.6 | 562 |  |  | Cn1cc(-c2ccc(Cc3cc(C(=O)N[C@H]4CCOC[C@@H]4O)nn3C3CCOC3)cc2)cn1 (stereo partly shown) [17j]
 | > 10000 | 57 ± 4.6 | > 10000 |  |  | Cn1cc(-c2ccc(Cc3cc(C(=O)N[C@H]4CCOC[C@@H]4O)nn3Cc3ccccc3)cc2)cn1 [17f]
 | 1260 |  | 794 |  |  | CNC(=O)c1ccc(Cc2cc(C(=O)N[C@H]3CCOC[C@@H]3O)nn2C2CCCC2)cc1 [compound 21]
72 ± 2.6 | 4570 | 80 ± 3.2 | 3470 |  |  | Cn1cc(-c2ccc(Cc3cc(C(=O)N[C@H]4CCCCC[C@@H]4O)nn3-c3ccccc3)cc2)cn1 [17e]
46 ± 1.1 | > 10000 | 50 ± 3.7 | > 10000 |  |  | Cn1cc(-c2ccc(Cc3cc(C(=O)NC4CC(F)C4)nn3C3CCCC3)cc2)cn1 (stereo not shown) [17o]
